Laboratory results from the supplement of paper PMC10307832.

Experiments:
Test in all cases: relative viability (nuclei count vs DMSO), 5 days (fraction); higher = more cells survive
Tozasertib + Lapatinib = compound: Cc1cc(Nc2cc(N3CCN(C)CC3)nc(Sc3ccc(NC(=O)C4CC4)cc3)n2)n[nH]1 [Tozasertib] + CS(=O)(=O)CCNCc1ccc(-c2ccc3ncnc(Nc4ccc(OCc5cccc(F)c5)c(Cl)c4)c3c2)o1 [Lapatinib] (partner 2 µM)
In short: (§1)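 A single step with final 0.05% Triton X-100, 1% formaldehyde and 1 ug/ml Hoechst fixed the cells and stained nuclei 5 days after treatment. Lung cancer cell lines in 1536-well plates had been treated by pin tool the day after seeding with one drug alone or a fixed anchor-drug dose plus five library-drug doses (not always all listed) in √10 steps, and nuclei were counted on 4× images. Relative viability is the ratio of nuclei in treated wells to nuclei in vehicle wells, taken as the median of duplicate plates.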

Tozasertib + Alpelisib = compound: Cc1cc(Nc2cc(N3CCN(C)CC3)nc(Sc3ccc(NC(=O)C4CC4)cc3)n2)n[nH]1 [Tozasertib] + Cc1nc(NC(=O)N2CCC[C@H]2C(N)=O)sc1-c1ccnc(C(C)(C)C(F)(F)F)c1 [Alpelisib] (partner 2 µM)
In short: as §1

Tozasertib + Dasatinib = compound: Cc1cc(Nc2cc(N3CCN(C)CC3)nc(Sc3ccc(NC(=O)C4CC4)cc3)n2)n[nH]1 [Tozasertib] + Cc1nc(Nc2ncc(C(=O)Nc3c(C)cccc3Cl)s2)cc(N2CCN(CCO)CC2)n1 [Dasatinib] (partner 0.075 µM)
In short: as §1

Tozasertib + Decitabine = compound: Cc1cc(Nc2cc(N3CCN(C)CC3)nc(Sc3ccc(NC(=O)C4CC4)cc3)n2)n[nH]1 [Tozasertib] + Nc1ncn([C@H]2C[C@H](O)[C@@H](CO)O2)c(=O)n1 [Decitabine] (partner 2 µM)
In short: as §1

Tozasertib + Vorinostat = compound: Cc1cc(Nc2cc(N3CCN(C)CC3)nc(Sc3ccc(NC(=O)C4CC4)cc3)n2)n[nH]1 [Tozasertib] + O=C(CCCCCCC(=O)Nc1ccccc1)NO [Vorinostat] (partner 1 µM)
In short: as §1

Row | Cell Line | relative viability (Tozasertib + Lapatinib; first compound 0.004 µM) | relative viability (Tozasertib + Lapatinib; first compound 0.01265 µM) | relative viability (Tozasertib + Lapatinib; first compound 0.04 µM) | relative viability (Tozasertib + Lapatinib; first compound 0.1265 µM) | relative viability (Tozasertib + Alpelisib; first compound 0.004 µM) | relative viability (Tozasertib + Alpelisib; first compound 0.01265 µM) | relative viability (Tozasertib + Alpelisib; first compound 0.04 µM) | relative viability (Tozasertib + Alpelisib; first compound 0.1265 µM) | relative viability (Tozasertib + Dasatinib; first compound 0.004 µM) | relative viability (Tozasertib + Dasatinib; first compound 0.01265 µM) | relative viability (Tozasertib + Dasatinib; first compound 0.04 µM) | relative viability (Tozasertib + Dasatinib; first compound 0.1265 µM) | relative viability (Tozasertib + Decitabine; first compound 0.004 µM) | relative viability (Tozasertib + Decitabine; first compound 0.01265 µM) | relative viability (Tozasertib + Decitabine; first compound 0.04 µM) | relative viability (Tozasertib + Decitabine; first compound 0.1265 µM) | relative viability (Tozasertib + Vorinostat; first compound 0.004 µM) | relative viability (Tozasertib + Vorinostat; first compound 0.01265 µM) | relative viability (Tozasertib + Vorinostat; first compound 0.04 µM) | relative viability (Tozasertib + Vorinostat; first compound 0.1265 µM)
1 | NCI-H838 | 1.12 | 0.947 | 1.16 | 0.208 | 1.15 | 0.942 | 1.12 | 1.03 | 0.304 | 0.307 | 0.225 | 0.256 | 0.464 | 0.458 | 0.453 | 0.253 | 0.716 | 0.713 | 0.502 | 0.235
2 | NCI-H1355 | 0.934 | 1.02 | 0.987 | 0.791 | 0.851 | 0.804 | 0.96 | 0.78 | 0.691 | 0.706 | 0.843 | 0.49 | 0.357 | 0.35 | 0.33 | 0.357 | 0.594 | 0.571 | 0.669 | 0.516
3 | NCI-H1395 | 1.29 | 0.818 | 1.04 | 0.572 | 1.15 | 1.04 | 0.914 | 0.753 | 0.423 | 0.343 | 0.438 | 0.357 | 0.724 | 0.674 | 0.673 | 0.524 | 0.944 | 0.641 | 0.643 | 0.353
4 | NCI-H1437 | 0.782 | 0.74 | 0.759 | 0.329 | – | 0.866 | 1.01 | 0.92 | 0.453 | 0.254 | 0.372 | 0.434 | 0.614 | 0.49 | 0.584 | 0.359 | 0.851 | 0.792 | 0.769 | 0.481
